The record followed here is patent publication US7923450B2, “Modulators for amyloid beta” (Hoffmann-La Roche Inc., priority 2008, dated 2011).

Each structure is given as a SMILES string.

System in the first data set: not given
Test: not given
Conditions: not given
One may read the melting point as the temperature, or range, at which the solid turns liquid. For `Cc1cn(-c2ccc(Nc3nc4c(s3)CCCC4(C)c3ccccc3)cc2F)cn1` (stereo not shown) [Example 31, [3-Fluoro-4-(4-methyl-imidazol-1-yl)-phenyl]-(4-methyl-4-phenyl-4,5,6,7-tetrahydro-benzothiazol-2-yl)-amine], the melting point is 160 to 164 °C.
On the same count and under the same terms, then `Cc1cn(-c2ccc(Nc3nc4c(s3)CCCC4c3ccc(OC(F)(F)F)cc3)cc2F)cn1` (stereo not shown) [Example 34, [3-Fluoro-4-(4-methyl-imidazol-1-yl)-phenyl]-[4-(4-trifluoromethoxy-phenyl)-4,5,6,7-tetrahydro-benzothiazol-2-yl]-amine], with 148 to 151 °C.
On the same count and under the same terms, then `COc1cc(Nc2ncc3c(n2)C(C)(c2ccccc2)CCC3)ccc1-n1cnc(C)c1` (stereo not shown) [Example 45, [3-Methoxy-4-(4-methyl-imidazol-1-yl)-phenyl]-(8-methyl-8-phenyl-5,6,7,8-tetrahydro-quinazolin-2-yl)-amine], with 207 to 209 °C; and `CCCC1(c2cccc(OC)c2)CCCc2cnc(Nc3ccc(-n4cnc(C)c4)c(OC)c3)nc21` (stereo not shown) [Example 46, [3-Methoxy-4-(4-methyl-imidazol-1-yl)-phenyl]-[8-(3-methoxy-phenyl)-8-propyl-5,6,7,8-tetrahydro-quinazolin-2-yl]-amine], with 166 to 168 °C.
`COc1cc(Nc2ncc3c(n2)C(c2cccc(C(F)(F)F)c2)CCC3)ccc1-n1cnc(C)c1` (stereo not shown) [Example 47, [3-Methoxy-4-(4-methyl-imidazol-1-yl)-phenyl]-[8-(3-trifluoromethyl-phenyl)-5,6,7,8-tetrahydro-quinazolin-2-yl]-amine]: the melting point fell in the range of 213 to 215 °C.
Same read-out and setting: then `COc1cc(Nc2ncc3c(n2)C(c2ccc(Cl)cc2Cl)CCC3)ccc1-n1cnc(C)c1` (stereo not shown) [Example 48, [8-(2,4-Dichloro-phenyl)-5,6,7,8-tetrahydro-quinazolin-2-yl]-[3-methoxy-4-(4-methyl-imidazol-1-yl)-phenyl]-amine], with 256 to 258 °C.
For `COc1cc(Nc2ncc3c(n2)C(c2ccc(Cl)c(Cl)c2)CCC3)ccc1-n1cnc(C)c1` (stereo not shown) [Example 49, [8-(3,4-Dichloro-phenyl)-5,6,7,8-tetrahydro-quinazolin-2-yl]-[3-methoxy-4-(4-methyl-imidazol-1-yl)-phenyl]-amine], the melting point is 167 to 169 °C.
In turn, `COc1cc(Nc2ncc3c(n2)C(c2ccc(F)cc2)CCC3)ccc1-n1cnc(C)c1` (stereo not shown) [Example 51, [8-(4-Fluoro-phenyl)-5,6,7,8-tetrahydro-quinazolin-2-yl]-[3-methoxy-4-(4-methyl-imidazol-1-yl)-phenyl]-amine] displayed a melting point of 191 to 193 °C.
On the same count and under the same terms, then `COc1cc(Nc2ncc3c(n2)C(CC#N)(c2ccc(Cl)cc2)CCC3)ccc1-n1cnc(C)c1` (stereo not shown) [Example 52, {8-(4-Chloro-phenyl)-2-[3-methoxy-4-(4-methyl-imidazol-1-yl)-phenylamino]-5,6,7,8-tetrahydro-quinazolin-8-yl}-acetonitrile], with 156 to 158 °C; and `COc1cc(Nc2nc(O)c3c(n2)C(c2ccccc2)CN(C)C3)ccc1-n1cnc(C)c1` (stereo not shown) [Example 53, 2-[3-Methoxy-4-(4-methyl-imidazol-1-yl)-phenylamino]-6-methyl-8-phenyl-5,6,7,8-tetrahydro-pyrido[4,3-d]pyrimidin-4-ol], with 152 to 155 °C.
Still for that read-out and setting: then `CCOC(=O)C1CCCc2cnc(Nc3ccc(-n4cnc(C)c4)c(OC)c3)nc21` (stereo not shown) [Example 54, Ethyl 2-[3-methoxy-4-(4-methyl-imidazol-1-yl)-phenylamino]-5,6,7,8-tetrahydro-quinazoline-8-carboxylate], with 162 to 164 °C; and `COC(=O)C1CC2(Cc3cnc(Nc4ccc(-n5cnc(C)c5)c(OC)c4)nc31)OCCO2` (stereo not shown) [Example 55, Methyl 6,6-ethylendioxy-2-[3-methoxy-4-(4-methyl-imidazol-1-yl)-phenylamino]-5,6,7,8-tetrahydro-quinazoline-8-carboxylate], with 180 to 182 °C; and `Cc1cn(-c2ccc(Nc3ncc4c(n3)C(C)(c3ccccc3)CCC4)cc2F)cn1` (stereo not shown) [Example 56, [3-Fluoro-4-(4-methyl-imidazol-1-yl)-phenyl]-(8-methyl-8-phenyl-5,6,7,8-tetrahydro-quinazolin-2-yl)-amine], with 157 to 158 °C.
The same measure, in the same setting: then `Cc1cn(-c2ccc(Nc3ncc4c(n3)C(c3cccc(C(F)(F)F)c3)CCC4)cc2F)cn1` (stereo not shown) [Example 57, [3-Fluoro-4-(4-methyl-imidazol-1-yl)-phenyl]-[8-(3-trifluoromethyl-phenyl)-5,6,7,8-tetrahydro-quinazolin-2-yl]-amine], with 207 to 209 °C.
Regarding `CCOC(=O)C1CCCc2cnc(Nc3ccc(-n4cnc(C)c4)c(F)c3)nc21` (stereo not shown) [Example 59, Ethyl 2-[3-fluoro-4-(4-methyl-imidazol-1-yl)-phenylamino]-5,6,7,8-tetrahydro-quinazoline-8-carboxylate], the melting point is 142 to 145 °C.
In turn, `Cc1cn(-c2ccc(Nc3ncc4c(n3)C(c3cc(C(F)(F)F)cc(C(F)(F)F)c3)CCC4)cc2F)cn1` (stereo not shown) [Example 61, [8-(3,5-Bis-trifluoromethyl-phenyl)-5,6,7,8-tetrahydro-quinazolin-2-yl]-[3-fluoro-4-(4-methyl-imidazol-1-yl)-phenyl]-amine] registered a melting point of 200 to 202 °C.
The same measure, in the same setting: then `COc1cc(Nc2ncc3c(n2)C(c2cc(Cl)ccc2Cl)CCCC3)ccc1-n1cnc(C)c1` (stereo not shown) [Example 62, [9-(2,5-Dichloro-phenyl)-6,7,8,9-tetrahydro-5H-cycloheptapyrimidin-2-yl]-[3-methoxy-4-(4-methyl-imidazol-1-yl)-phenyl]-amine], with 218 to 220 °C.
Still for that read-out and setting: then `CCOC(=O)C1CCc2cnc(Nc3ccc(-n4cnc(C)c4)c(OC)c3)nc21` (stereo not shown) [Example 63, Ethyl 2-[3-methoxy-4-(4-methyl-imidazol-1-yl)-phenylamino]-6,7-dihydro-5H-cyclopentapyrimidine-7-carboxylate], with 150 to 153 °C; and `COc1cc(Nc2ncc3c(n2)C(c2nc(C)no2)CCC3)ccc1-n1cnc(C)c1` (stereo not shown) [Example 64, [3-Methoxy-4-(4-methyl-imidazol-1-yl)-phenyl]-[8-(3-methyl-[1,2,4]oxadiazol-5-yl)-5,6,7,8-tetrahydro-quinazolin-2-yl]-amine], with 212 to 214 °C.
In turn, `COc1cc(Nc2ncc3c(n2)C(N2CCOCC2)CCC3)ccc1-n1cnc(C)c1` (stereo not shown) [Example 81, [3-Methoxy-4-(4-methyl-imidazol-1-yl)-phenyl]-(8-morpholin-4-yl-5,6,7,8-tetrahydro-quinazolin-2-yl)-amine] registered a melting point of 214 to 216 °C.
`COc1cc(Nc2ncc3c(n2)C(c2ccccn2)CCC3)ccc1-n1cnc(C)c1` (stereo not shown) [Example 84, [3-Methoxy-4-(4-methyl-imidazol-1-yl)-phenyl]-(8-pyridin-2-yl-5,6,7,8-tetrahydro-quinazolin-2-yl)-amine]: the melting point fell in the range of 181 to 183 °C.

Another data set deals with γ-secretase. The data set is described as follows: Cellular γ-secretase assay (Aβ42 secretion). The class given is cell-based. The settings on record: inhibition of Aβ42 secretion; human neuroglioma H4 cells overexpressing human APP; 22 hrs incubation; read-out: EC50 in vitro. As to the method: Cellular γ-Secretase Assay
Human neuroglioma H4 cells overexpressing human APP were plated at 30,000 cells/well/200 μl in 96-well plates in IMDM media containing 10% FCS, 0.2 mg/l Hygromycin B and incubated for 2 h at 37° C., 5% CO2 prior to adding test compounds.
Compounds for testing were dissolved in 100% Me2SO yielding in a 10 mM stock solution. Typically 12 μl of these solutions were further diluted in 1000 μl of IMDM media (w/o FCS,). Sub sequential 1:1 dilutions gave a ten point dose response curve. 100 μl of each dilution was added to the cells in 96-well plates. Appropriate controls using vehicle only and reference compound were applied to this assay. The final concentration of Me2SO was 0.4%.
After incubation for 22 hrs at 37° C., 5% CO2, 50 μl supernatant was transferred into round-bottom 96-well polypropylene plates for detection of Aβ42. 50 μl assay buffer (50 mM Tris/Cl, pH 7.4, 60 mM NaCl, 0.5% BSA, 1% TWEEN 20) was added to the wells followed by the addition of 100 μl of detection antibody (ruthenylated Aβ42-specific antibody BAP15 0.0625 μg/mL in assay buffer). 50 μl of a premix of capture antibody (biotinylated 6E10 antibody, 1 μg/mL) and Steptavidin-coated magnetic beads (Dynal M-280, 0.125 mg/mL) were preincubated for 1 hr at room temperature before adding the assay plates. Assay plates were incubated on a shaker for 3 hrs at room temperature and finally read in the Bioveris M8 Analyser according to the manufacturer's instructions (Bioveris).
EC50 values for inhibition of Aβ42 secretion were calculated by nonlinear regression fit analysis using XLfit 4.0 software (IDBS).
For orientation: EC50 means the concentration giving half of the maximal effect. `COc1cc(Nc2ncc3c(n2)C(C2CCCCC2)CCC3)ccc1-n1cnc(C)c1` (stereo not shown) [Example 71, (8-Cyclohexyl-5,6,7,8-tetrahydro-quinazolin-2-yl)-[3-methoxy-4-(4-methyl-imidazol-1-yl)-phenyl]-amine]: the EC50 stood at 470 nM.
Still for that read-out and setting: then `COc1cc(Nc2ncc3c(n2)C(c2ccccc2)CN(C(C)C)C3)ccc1-n1cnc(C)c1` (stereo not shown) [Example 80, (6-Isopropyl-8-phenyl-5,6,7,8-tetrahydro-pyrido[4,3-#d!]pyrimidin-2-yl)-[3-methoxy-4-(4-methyl-imidazol-1-yl)-phenyl]-amine], with 450 nM.
On the same count and under the same terms, then `CCOC1CCCc2cnc(Nc3ccc(-n4cnc(C)c4)c(OC)c3)nc21` (stereo not shown) [Example 83, (8-Ethoxy-5,6,7,8-tetrahydro-quinazolin-2-yl)-[3-methoxy-4-(4-methyl-imidazol-1-yl)-phenyl]-amine], with 450 nM; and `COc1cc(Nc2nc3c(s2)CCCC3c2ccccc2)ccc1-c1cnn(C)c1` (stereo not shown) [Example 91, [3-Methoxy-4-(1-methyl-1H-pyrazol-4-yl)-phenyl]-(4-phenyl-4,5,6,7-tetrahydro-benzothiazol-2-yl)-amine], with 240 nM; and `COc1cc(Nc2nc3c(s2)CCCC3c2ccccc2)ccc1-c1cnc(C)s1` (stereo not shown) [Example 92, [3-Methoxy-4-(2-methyl-thiazol-5-yl)-phenyl]-(4-phenyl-4,5,6,7-tetrahydro-benzothiazol-2-yl)-amine], with 252 nM.
Regarding `COc1cc(Nc2nc3c(s2)CCCC3c2ccccc2)ccc1-c1sc(C)nc1C` (stereo not shown) [Example 93, [4-(2,4-Dimethyl-thiazol-5-yl)-3-methoxy-phenyl]-(4-phenyl-4,5,6,7-tetrahydro-benzothiazol-2-yl)-amine], the EC50 worked out at 212 nM.
In the case of `c1ccc(C2CCCc3sc(Nc4ccc(-c5ccncc5)cc4)nc32)cc1` (stereo not shown) [Example 94, (4-Phenyl-4,5,6,7-tetrahydro-benzothiazol-2-yl)-(4-pyridin-4-yl-phenyl)-amine], the EC50 is 320 nM.
